# In patent US20090264426A1, “Bicyclic aromatic substituted pyridone derivative” (priority 2005, published 2009):
# Molecular target: T1, human MCH-1R (Homo sapiens, UniProt Q99705)
# T1 construct: expressed in transfected cells; host or cells: CHO-K1
# Assay: MCH binding inhibition test
# Conditions: 50% inhibition of specific [125I]MCH (50 pM) binding; membranes of MCH-1R expressing CHO-K1 cells; 25° C., 1 hour, pH 7.4
# Method: A human MCH-1R encoding cDNA sequence [FEBS Letters, Vol. 398, 253 (1996); Biochimica et Biophisica Acta, Vol. 1401, 216 (1998)] was cloned to a plasmid vector pEF/myc/cyto (Invitrogen Corporation). The obtained expression vector was transfected to host cells CHO-K1 (American Type Culture Collection) using Lipofectamine Plus Reagent (Life Technology Inc.) to provide MCH-1R expression cells.
# Membrane samples prepared from the MCH-1R expression cells were incubated with each test compound and 50 pM of [^125I]MCH (NEN Co.), in an assay buffer (50 mM Tris buffer comprising 10 mM magnesium chloride, 2 mM ethylenediamine tetraacetate, 0.01% bacitracin and 0.2% bovine serum albumin; pH 7.4) at 25° C. for an hour, followed by filtration through a glass filter GF/C (Wattman Co.). After washing the glass filter with 50 mM Tris buffer (pH 7.4) comprising 10 mM magnesium chloride, 2 mM ethylenediamine tetraacetate and 0.04% Tween-20, the radioactive activity on the glass filter was measured. The non-specific binding was measured in the presence of 1 μM human MCH and 50% inhibition concentration (IC50 value) of each test compound to the specific [^125I]MCH binding was determined.
# T1 sequence (Q99705 whole entry): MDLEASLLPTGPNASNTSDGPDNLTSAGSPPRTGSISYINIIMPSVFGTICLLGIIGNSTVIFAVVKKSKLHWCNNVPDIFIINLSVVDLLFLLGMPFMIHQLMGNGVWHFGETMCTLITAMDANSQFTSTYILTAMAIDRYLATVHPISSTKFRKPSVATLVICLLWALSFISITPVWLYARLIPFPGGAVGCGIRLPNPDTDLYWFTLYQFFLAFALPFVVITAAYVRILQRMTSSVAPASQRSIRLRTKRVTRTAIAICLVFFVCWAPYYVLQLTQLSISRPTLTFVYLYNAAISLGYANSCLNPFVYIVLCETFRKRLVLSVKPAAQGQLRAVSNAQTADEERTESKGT
row,Compound,IC50 [nM]
1,"O=c1cc(OCc2ccc(Cl)cn2)ccn1-c1ccc2nc(OCCN3CCCC3)ccc2c1 [Example 8, 4-[(5-Chloropyridin-2-yl)methoxy]-1-[2-(2-pyrrolidin-1-ylethoxy)quinolin-6-yl]pyridin-2(1H)-one]",6.4
2,"O=c1cc(OCc2ccc(Cl)cn2)ccn1-c1ccc2nc(OCCCN3CCCC3)ccc2c1 [Example 20, 4-[(5-Chloropyridin-2-yl)methoxy]-1-[2-(3-pyrrolidin-1-ylpropoxy)quinolin-6-yl]pyridin-2(1H)-one]",7.8
3,"CCNCc1ccc2cc(-n3ccc(OCc4ccc(F)cc4)cc3=O)ccc2n1 [Example 23, 1-{2-[(Ethylamino)methyl]quinolin-6-yl}-4-[(4-fluorobenzyl)oxy]pyridin-2(1H)-one]",6.2
4,"O=c1cc(OCc2ccccc2)ccn1-c1ccc2cn(CCN3CCCC3)nc2c1 [Example 27, 4-(Benzyloxy)-1-[2-(2-pyrrolidin-1-ylethyl)-2H-indazol-6-yl]pyridin-2(1H)-one]",80
5,"O=c1cc(OCc2ccccc2)ccn1-c1ccc2cc(CN3CCC3)ccc2n1 [Example 28, 1-[6-(Azetidin-1-ylmethyl)quinolin-2-yl]-4-(benzyloxy)pyridin-2(1H)-one]",7.6
6,"O=c1cc(OCc2ccc(Cl)cn2)ccn1-c1ccc2nc(CN3CCC3)ccc2c1 [Example 30, 1-[2-(Azetidin-1-ylmethyl)quinolin-6-yl]-4-[(5-chloropyridin-2-yl)methoxy]pyridin-2(1H)-one]",5.9
7,"CNCc1ccc2cc(-n3ccc(OCc4ccc(Cl)cc4)cc3=O)ccc2n1 [Example 35, 4-[(4-Chlorobenzyl)oxy]-1-{2-[(methylamino)methyl]quinolin-6-yl}pyridin-2(1H)-one]",2.2
8,"O=c1cc(OCc2ccccc2)ccn1-c1ccc2cc(OCCN3CCCC3)ccc2c1 [Example 38, 4-(Benzyloxy)-1-[6-(2-pyrrolidin-1-ylethoxy)-2-naphthyl]pyridin-2(1H)-one]",3.1
9,"CCCNCc1ccc2cc(-n3ccc(OCc4ccc(Cl)cn4)cc3=O)ccc2n1 [Example 40, 4-[(5-Chloropyridin-2-yl)methoxy]-1-{2-[(propylamino)methyl]quinolin-6-yl}pyridin-2(1H)-one]",5.2
10,"O=c1cc(/C=C/c2ccc(Cl)cn2)ccn1-c1ccc2nc(OCCN3CCCC3)cnc2c1 [Example 57, 4-[(E)-2-(5-chloropyridin-2-yl)vinyl]-1-[2-(2-pyrrolidin-1-ylethoxy)quinoxalin-6-yl]pyridin-2(1H)-one]",10.1
11,"Cc1c(CCCN2CCCC2)nc2ccc(-n3ccc(OCc4ccc(Cl)cn4)cc3=O)cn12 [Example 63, 4-[(5-Chloropyridin-2-yl)methoxy]-1-[3-methyl-2-(3-pyrrolidin-1-ylpropyl)imidazo[1,2-a]pyridin-6-yl]pyridin-2(1H)-one]",22
12,"Cn1c(CCCN2CCCC2)nc2ccc(-n3ccc(OCc4ccc(Cl)cc4)cc3=O)cc21 [Example 65, 4-[(4-Chlorobenzyl)oxy]-1-[1-methyl-2-(3-pyrrolidin-1-ylpropyl)-1H-benzimidazol-6-yl]pyridin-2(1H)-one]",5.1
13,"Cn1c(CN2CCCC2)cc2ccc(-n3ccc(OCc4ccc(Cl)cn4)cc3=O)cc21 [Example 70, 4-[(5-Chloropyridin-2-yl)methoxy]-1-[1-methyl-2-(pyrrolidin-1-ylmethyl)-1H-indol-6-yl]pyridin-2(1H)-one]",11
14,"CCCNCCc1ccc2cc(-n3ccc(OCc4ccccc4)cc3=O)ccc2n1 [Example 76, 4-(Benzyloxy)-1-{2-[2-(propylamino)ethyl]quinolin-6-yl}pyridin-2(1H)-one]",2.9
15,"O=c1cc(OCc2ccc(F)cc2)ccn1-c1ccc2oc(CN3CCCCCC3)cc2c1 [Example 89, 1-[2-(Azepan-1-ylmethyl)-1-benzofuran-5-yl]-4-[(4-fluorobenzyl)oxy]pyridin-2(1H)-one]",19
16,"CC(C)N(C)c1nc2ccc(-n3ccc(OCCOc4ccc(F)cc4)cc3=O)cc2[nH]1 [Example 90, 4-[2-(4-fluorophenoxy)ethoxy]-1-{2-[isopropyl(methyl)amino]-1H-benzimidazol-6-yl}pyridin-2(1H)-one]",9.8
17,"O=c1cc(OCc2ccc(F)cc2)ccn1OCc1ccc2nc(CN3CCCC3)ccc2c1 [Example 94, 4-[(4-Fluorobenzyl)oxy]-1-{[2-(pyrrolidin-1-ylmethyl)quinolin-6-yl]methoxy}pyridin-2(1H)-one]",10.5
18,"O=c1cc(OCc2ccc(F)cc2)ccn1-c1ccc2nc(CN3CCC3)ccc2n1 [Example 95, 1-[6-(Azetidin-1-ylmethyl)-1,5-naphthyridin-2-yl]-4-[(4-fluorobenzyl)oxy]pyridin-2(1H)-one]",23
19,"O=c1cc(OCc2ccc(F)cc2)ccn1-c1ccc2cc(CN3CCC3)cnc2c1 [Example 98, 1-[3-(Azetidin-1-ylmethyl)quinolin-7-yl]-4-[(4-fluorobenzyl)oxy]pyridin-2(1H)-one]",9.6
20,"O=c1cc(OCc2ccc(F)cc2)ccn1-c1ccc2cc(CN3CCC3)ncc2c1 [Example 99, 1-[3-(Azetidin-1-ylmethyl)isoquinolin-7-yl]-4-[(4-fluorobenzyl)oxy]pyridin-2(1H)-one]",6
